Patent US20240172747A1, “USE OF SORBIC ACID AND SALTS THEREOF AS A NEMATOCIDE” (GONELLA INVENT SOCIETA' A RESPONSABILITA' LIMITATA […], priority 2021, published 2024)
Where “and” joins values, the source holds several entries; their conditions need not be identical. Equal entries are not always repeated.

Experiments:
[1] = tested on: larvae of the genus Meloydogine, Heterodera and Globodera; conditions: laboratory tests
Meloidogyne J2 larvae = assay: Motility/mortality test on Meloidogyne J2 larvae in suspension; type: in vivo; conditions: single replicates; for READING % IMMOBILE J2 @ 2 H: 2 h exposure; for % DEAD J2 @ 24 H: 24 h exposure
Description: Extraction of root-knot nematodes taken from soil cultivated with basil (Ocimum basilicum) with strong infestation (J2 larvae) from about 500 cc of soil by means of a wool-paper filter (EPPO Bulletin 13,2013) and concentration in distilled water.
The Tests were established by adding an amount of stock solution to one ml of nematode suspension, so as to obtain the final established concentrations.
Nematodes motility parameters were evaluated after 2 h and after 24 h exposure of the J2 larvae to the nematocidal substance.
In the first test, the count was carried out by microscopic observation of immobile nematodes after 2 hours exposure to the product, to evaluate a possible […] effect of the substance. In the second test, the count was carried out by microscopic observation of the nematodes considered dead with strong signs of tissue degeneration (thickening and blistering in the nematode body accompanied by the final folding of the body at right angle).

M. incognita nematodes = tested on: M. incognita nematodes
Source text: The trial was followed by a test center (third body) in the Vittoria area (RG) in greenhouses with continuous cycles of courgette (Cucurbita pepo) subjected to strong pressure of M. incognita nematodes. […] First application at day 1 after transplantation (DAT), second application at day 7 DAT, third application at day 21 DAT.
The follow-up was scheduled at day 45 (FIG. 5 and FIG. 6) and day 90 after the first treatment. […] Following this screening trial, new large-scale tests will begin to establish optimal doses, modes and volume of distribution. From Table 3 below, it was possible to evaluate the % of nematode attack with a count of the damage present on the root system (galls).

insects or mites = conditions: laboratory tests
[2] = OECD Test Guideline 403; cited from earlier work
[3] = OECD Test Guideline 402; cited from earlier work
[4] = tested on: Meloidogyne incognita eggs
Description: In order to evaluate the efficacy in containing the root-knot nematode Meloidogyne incognita, several in vitro experimental tests were carried out using a sorbic acid solution containing 1 mg/ml of active substance at 98% purity. The average of the tests is reported.
This test concentration was tested on unsegmented and embryonated eggs of M. incognita.
The tests carried out were developed in vitro using double concave glass lenses, by introducing 2 ml of the test solution containing 1 mg/ml of sorbic acid, or sterile water in the case of the control. The incubation took place at a room temperature of 22° C., in the dark. The population of M. incognita was from plants raised in an open field of tomatoes (Solanum lycopersicum).
Unsegmented and embryonated eggs: the eggs were collected from the ovisacs and placed in a double concave glass lens in the presence of the solution to be tested.
Counts of hatched larvae were carried out for 7 days with daily counting and microscopic observation.

[5] = 25° C.; cited from earlier work
nematodes = conditions: laboratory test in a jar, after application
Source text: A dose ranging from 0.0001% to 0.001% is considered a “sub-lethal” or “nematostatic” dose, and therefore is a dose which may not kill the nematode but inhibits its mobility and pest capacity.

[6] = TEST 1: Potassium Sorbate (80% purity) 250 μg/ml
[7] = TEST 2: Potassium Sorbate 500 μg/ml
[8] = TEST 3: Potassium Sorbate 1 mg/ml

With `C/C=C/C=C/C(=O)[O-].C/C=C/C=C/C(=O)[O-].[Ca+2]` [Calcium Sorbate, calcium sorbate] the “effect on larvae of the genus Meloydogine, on Heterodera and Globodera” value (“effect on larvae” below) [1] was “had an effect”.
In the case of `C/C=C/C=C/C(=O)[O-].[K+]` [Potassium Sorbate, potassium sorbate], the “effect on larvae” value [1] is reported as “had an effect”, the “READING % IMMOBILE J2 @ 2 H” value (Meloidogyne J2 larvae; [6]) is reported as 10% and 5% and 7% and 2% and the “% DEAD J2 @ 24 H” value (Meloidogyne J2 larvae; [6]) is reported as 15% and 12% and 18% and 10%. The “READING % IMMOBILE J2 @ 2 H” value (Meloidogyne J2 larvae; [7]) was 40% and 38% and 45% and 43%, the “% DEAD J2 @ 24 H” value (Meloidogyne J2 larvae; [7]) was 80% and 76% and 75% (2×) and the “READING % IMMOBILE J2 @ 2 H” value (Meloidogyne J2 larvae; [8]) was 75% (2×) and 78% and 80%. For the same compound, the “% DEAD J2 @ 24 H” value (Meloidogyne J2 larvae; [8]) was 98% and 99% and 100% and 96%, the “Average weight of a courgette” value (M. incognita nematodes; 10 kg/ha) was 0.24 kg and the “Average production of a plant, No. courgettes” value (M. incognita nematodes; 10 kg/ha, mean of 20 plants) was 15.75. For the same compound, the “Average production of a plant, Weight in kg” value (M. incognita nematodes; 10 kg/ha, mean of 20 plants) was 3.78 kg and the “toxicity or damage of the root system” value (M. incognita nematodes; field application, courgette) was “without leading to toxicity or damage of the root system”.
In the case of `C/C=C/C=C/C(=O)[O-].[Na+]` [Sodium Sorbate, sodium sorbate], the “effect on larvae” value [1] is reported as “had an effect”.
In the case of `C/C=C/C=C/C(=O)O` [Sorbic Acid, 2,4-hexadienoic acid], the “insecticidal or acaricidal activity” value (insects or mites) is listed as “no insecticidal activity (insect kingdom) or acaricidal activity has been found”, the “Lethal Concentration 50: LC50” value [2] is listed as 5.1 mg·L and the “effect on larvae” value [1] is listed as “had an effect”. For the same compound, the “Lethal Dose 50: LD50” value [3] was greater than 3000 mg/kg, the “hatched larvae, Day 1 DAT” value ([4]; 1 mg/ml sorbic acid (98% purity), 22° C., dark, Day 1, average of tests) was 0 and the “hatched larvae, Day 2 DAT” value ([4]; 1 mg/ml sorbic acid, 22° C., dark, Day 2, average of tests) was 0%. For the same compound, the “hatched larvae, Day 3 DAT” value ([4]; 1 mg/ml sorbic acid, 22° C., dark, Day 3, average of tests) was 0%, the “hatched larvae, Day 4 DAT” value ([4]; 1 mg/ml sorbic acid, 22° C., dark, Day 4, average of tests) was 0% and the “hatched larvae, Day 5 DAT” value ([4]; 1 mg/ml sorbic acid, 22° C., dark, Day 5, average of tests) was 0%. For the same compound, the “hatched larvae, Day 6 DAT” value ([4]; 1 mg/ml sorbic acid, 22° C., dark, Day 6, average of tests) was 1%, the “hatched larvae, Day 7 DAT” value ([4]; 1 mg/ml sorbic acid, 22° C., dark, Day 7, average of tests) was 3% and the “efficacy on egg embryogenesis and larvae” value ([4]; 1 mg/ml sorbic acid, in vitro) was “allowing the inhibition of egg embryogenesis and excellent action on larvae, both free and included in ovisacs”. The “partition coefficient: n-octanol/water, log Pow” value [5] was 1.32 and the “nematostatic effect: number of immature forms” value (nematodes) was “a greater number of immature forms”.
In the case of “Abamectin [REFERENCE, reference compound]”, the “READING % IMMOBILE J2 @ 2 H” value (Meloidogyne J2 larvae; Reference: Abamectin 90 μg/ml) is reported as 100% and 99% (2×) and 98% and the “% DEAD J2 @ 24 H” value (Meloidogyne J2 larvae; Reference: Abamectin 90 μg/ml) is reported as 100% (3×) and 99%.
